The record followed here is patent US11952371B1, “2-[(1,3-benzoxazol-2-yl)imino]-5,5-diphenylimidazolidin-4-one as an antimicrobial compound” (KING FAISAL UNIVERSITY, priority 2023, dated 2024).

In one series the test system is Bacillus cereus. Nature of the series: Agar plate disc-diffusion, antibacterial activity. The series is classed as cell-based. As to the method:
(§1) The agar plate disc-diffusion method was applied. […] The discs were then placed onto the surface of agar plates (nutrient agar for bacteria and Sabouraud's dextrose agar for fungi) seeded with the test organism. Each plate contained 15 mL of the agar medium, previously seeded with 0.2 mL of the broth culture of each organism pregrown for 18 hours. The plates were incubated at 37° C. for 48 hours, and 72 hours for fungi. The inhibition zones were measured in millimeter. Discs impregnated with DMSO were used as a control, and its inhibition zone was subtracted from the tested compound actual inhibition zone.
(§2) The results of the antimicrobial testing can be observed in Tables 1 and 2, below, with ciprofloxacin serving as a reference.
For orientation: In agar diffusion tests the substance spreads into inoculated agar from a disc or well.

For another series, the system named is Pseudomonas aeruginosa. Nature of the series: Agar plate disc-diffusion, antibacterial activity. The series is classed as cell-based. As to the method: as §1, §2
In a further series the test system is Escherichia coli. Nature of the series: Agar plate disc-diffusion, antibacterial activity. The series is classed as cell-based. As to the method: as §1, §2
The subject of a further series is Staphylococcus aureus. Nature of the series: Agar plate disc-diffusion, antibacterial activity. The series is classed as cell-based. The protocol:
as §1, §2

In the next series the test system is Aspergillus flavus. Nature of the series: Agar plate disc-diffusion, antifungal activity. The series is classed as cell-based. As to the method:
as §1, §2

For series [1], the system named is Chrysosporium keratinophilum. Nature of the series: Agar plate disc-diffusion, antifungal activity. The series is classed as cell-based. As to the method: as §1, §2
[2] abbreviates: A = concentration of comp. = 10,000 μL.
[3] abbreviates: B = concentration of comp. = 30,000 μL.
The mark [4] stands for this setting: C = concentration of comp. = 50,000 μL.

SMILES strings stand for the structures.

Take `O=C(O)c1cn(C2CC2)c2cc(N3CCNCC3)c(F)cc2c1=O` [Cip., ciprofloxacin, reference compound]: the inhibition zone with Bacillus cereus (setting [2]) amounted to 29 millimeter; in the series with Bacillus cereus (setting [3]), 31 millimeter; in the series with Bacillus cereus (setting [4]), 42 millimeter; with Pseudomonas aeruginosa (setting [2]), 29 millimeter; in the series with Pseudomonas aeruginosa (setting [3]) it was 30 millimeter; in the series with Pseudomonas aeruginosa (setting [4]), 53 millimeter. In addition, the inhibition zone in the series with Escherichia coli (setting [2]) is 30 millimeter; in the series with Escherichia coli (setting [3]), 39 millimeter; with Escherichia coli (setting [4]), 60 millimeter; in the series with Staphylococcus aureus (setting [2]), 42 millimeter; in the series on Staphylococcus aureus (setting [3]), 44 millimeter; in the series with Staphylococcus aureus (setting [4]), 53 millimeter. Moreover, the inhibition zone in the series with Aspergillus flavus (setting [2]) came out at 29 millimeter; in the series on Aspergillus flavus (setting [3]) it was 30 millimeter; with Aspergillus flavus (setting [4]), 42 millimeter; in series [1] (setting [2]), 29 millimeter; in series [1] (setting [3]) it was 30 millimeter; in series [1] (setting [4]) it was 53 millimeter.

Usually melting point stands for the temperature of the solid-liquid transition. In the case of `O=C1N/C(=N/c2nc3ccccc3o2)NC1(c1ccccc1)c1ccccc1` [compound 3, 2-[(1,3-benzoxazol-2-yl)imino]-5,5-diphenylimidazolidin-4-one], the melting point was in the range of 234 to 236 °C. In the series with Bacillus cereus (setting [2]), this compound came in with an inhibition zone of 27 millimeter. Further, in the series on Bacillus cereus (setting [3]), the inhibition zone turned out to be 30 millimeter. The compound also yielded an inhibition zone with Bacillus cereus (setting [4]) of 42 millimeter. The compound also had an inhibition zone in the series with Pseudomonas aeruginosa (setting [2]) of 26 millimeter. This compound came in with an inhibition zone with Pseudomonas aeruginosa (setting [3]) of 30 millimeter. In the series on Pseudomonas aeruginosa (setting [4]), this compound yielded an inhibition zone of 48 millimeter. The inhibition zone with Escherichia coli (setting [2]) worked out at 25 millimeter. This compound displayed an inhibition zone in the series on Escherichia coli (setting [3]) of 33 millimeter. The compound further had an inhibition zone with Escherichia coli (setting [4]) of 39 millimeter. In addition, the inhibition zone in the series on Staphylococcus aureus (setting [2]) was 16 millimeter. Moreover, the inhibition zone with Staphylococcus aureus (setting [3]) was 19 millimeter. This compound came in with an inhibition zone in the series on Staphylococcus aureus (setting [4]) of 23 millimeter. Besides, the inhibition zone with Aspergillus flavus (setting [2]) was found to be 19 millimeter. In the series with Aspergillus flavus (setting [3]), this compound displayed an inhibition zone of 23 millimeter. Further, the inhibition zone with Aspergillus flavus (setting [4]) is on record as 37 millimeter. The same compound yielded an inhibition zone in series [1] (setting [2]) of 22 millimeter. The same compound displayed an inhibition zone in series [1] (setting [3]) of 25 millimeter. Also, the inhibition zone in series [1] (setting [4]) was found to be 47 millimeter.
